Source: patent publication US6737383B1, “Herbicidal oxadiazolidines” (priority 1999, dated 2004)

Assays:
surinam grass = experiment: Test B pre/postemergence surinam grass; format: in vivo, Brachiaria decumbens
Procedure, shortened: (§1)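 Herbicidal effect was estimated by eye on a ten-point control scale after plants spent twelve to sixteen days in a greenhouse following soil or foliar treatment. Foliar sprays targeted plants at one to four leaves; all doses were formulated in a non-phytotoxic solvent with surfactant.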

soybean = experiment: Test B pre/postemergence soybean; format: in vivo, Glycine max
Procedure, shortened: as §1

rice = experiment: Test B flood test rice; format: in vivo, Oryza sativa
Procedure, shortened: (§2)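 Flood test on plants grown to the 2-leaf stage; treated plants kept in greenhouse twelve to sixteen days, then visually rated against controls on a 0 (no effect) to 10 (complete control) scale.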

bedstraw = experiment: Test B pre/postemergence bedstraw; format: in vivo, Galium aparine
Procedure, shortened: as §1

wild oat = experiment: Test B pre/postemergence wild oat; format: in vivo, Avena fatua; conditions: for Plant response rating, Wild oats: Rate 250 g/ha
Procedure, shortened: as §1

rape = experiment: Test B pre/postemergence rape; format: in vivo, Brassica napus
Procedure, shortened: as §1

purple nutsedge = experiment: Test B pre/postemergence purple nutsedge; format: in vivo, Cyperus rotundus
Procedure, shortened: as §1

crabgrass = experiment: Test B pre/postemergence crabgrass; format: in vivo, Digitaria sanguinalis
Procedure, shortened: as §1

velvetleaf = experiment: Test B pre/postemergence velvetleaf; format: in vivo, Abutilon theophrasti; conditions: for Plant response rating, Velvetleaf: Rate 250 g/ha
Procedure, shortened: as §1

blackgrass = experiment: Test B pre/postemergence blackgrass; format: in vivo, Alopecurus myosuroides
Procedure, shortened: as §1

duck salad = experiment: Test B flood test duck salad; format: in vivo, Heteranthera limosa
Procedure, shortened: as §2

corn = experiment: Test B pre/postemergence corn; format: in vivo, Zea mays
Procedure, shortened: as §1

sugar beet = experiment: Test B pre/postemergence sugar beet; format: in vivo, Beta vulgaris; conditions: for Plant response rating, Sugarbeets: Rate 250 g/ha
Procedure, shortened: as §1

pigweed = experiment: Test B pre/postemergence pigweed; format: in vivo, Amaranthus retroflexus
Procedure, shortened: as §1

wheat = experiment: Test B pre/postemergence wheat; format: in vivo, Triticum aestivum; conditions: for Plant response rating, Wheat: Rate 250 g/ha
Procedure, shortened: as §1

smallflower flatsedge = experiment: Test B flood test smallflower flatsedge; format: in vivo, Cyperus difformis
Procedure, shortened: as §2

[1] = Postemergence, Rate 62 g/ha, scale 0 to 10, 0 is no effect, 10 is complete control
[2] = Postemergence, Rate 250 g/ha, scale 0 to 10, 0 no effect, 10 complete control
[3] = Preemergence, Rate 62 g/ha, scale 0 to 10 (0 no effect, 10 complete control)
[4] = Preemergence, Rate 125 g/ha, scale 0 to 10 (0 no effect, 10 complete control)
[5] = Preemergence, Rate 250 g/ha, scale of 0 to 10 where 0 is no effect and 10 is complete control
[6] = Preemergence, Rate 500 g/ha, scale 0 to 10 (0 no effect, 10 complete control)
[7] = Rate 125 g/ha, Postemergence, scale 0 to 10, 0 no effect, 10 complete control
[8] = Postemergence, Rate 125 g/ha, scale of 0 to 10 where 0 is no effect and 10 is complete control
[9] = Rate 62 g/ha, Postemergence, scale of 0 to 10 where 0 is no effect and 10 is complete control
[10] = Rate 250 g/ha, Postemergence, scale 0 to 10, 0 is no effect, 10 is complete control
[11] = Rate 500 g/ha, Postemergence, scale 0 to 10, 0 no effect, 10 complete control
[12] = Rate 250 g/ha, headed Pre-emergence (flood test species), scale 0 to 10 (0 no effect, 10 complete control)
[13] = Rate 500 g/ha, headed Pre-emergence (flood test species), scale 0 to 10 (0 no effect, 10 complete control)
[14] = Rate 1000 g/ha, Pre-emergence (as headed), scale 0 to 10
[15] = Rate 2000 g/ha, Pre-emergence (as headed), scale 0 to 10
[16] = Preemergence, Rate 125 g/ha, 0 is no effect, 10 is complete control
[17] = Preemergence, scale of 0 to 10 where 0 is no effect and 10 is complete control
[18] = Postemergence, scale 0 to 10, 0 is no effect, 10 is complete control

CCCn1c(=O)on(C(=O)N(c2ccc(Cl)cc2)C(C)C)c1=O [Compound 119]
5: B. signalgrass plant response rating (surinam grass; [3]) | B. signalgrass plant response rating (surinam grass; Rate 500 g/ha, Postemergence, scale of 0 to 10 where 0 is no effect and 10 is complete control) | Wild oats plant response rating (wild oat; [3]) | Plant response rating, Velvetleaf (velvetleaf; [17]) | Blackgrass plant response rating (blackgrass; [3]) | Wheat plant response rating (wheat; [6])
8: Bedstraw plant response rating (bedstraw; [6]) | Bedstraw plant response rating (bedstraw; [11]) | Crabgrass plant response rating (crabgrass; [2]) | Plant response rating, Crabgrass (crabgrass; [5]) | Crabgrass plant response rating (crabgrass; [11]) | Plant response rating, Blackgrass (blackgrass; [4]) | Blackgrass plant response rating (blackgrass; [11]) | Plant response rating, Sugarbeets (sugar beet; [17]) | Sugarbeets plant response rating (sugar beet; [6])
10: Crabgrass plant response rating (crabgrass; [6]) | Redroot pigweed plant response rating (pigweed; [3]) | Plant response rating, Redroot pigweed (pigweed; [4]) | Plant response rating, Redroot pigweed (pigweed; [5]) | Redroot pigweed plant response rating (pigweed; [6])
1: Soybean plant response rating (soybean; [9])
3: B. signalgrass plant response rating (surinam grass; [2]) | Plant response rating, Wild oats (wild oat; [18]) | Crabgrass plant response rating (crabgrass; [8]) | Plant response rating, Velvetleaf (velvetleaf; [18]) | Velvetleaf plant response rating (velvetleaf; [11]) | Blackgrass plant response rating (blackgrass; [8]) | Sugarbeets plant response rating (sugar beet; [3]) | Plant response rating, Wheat (wheat; [17]) | Plant response rating, Wheat (wheat; [18]) | Wheat plant response rating (wheat; [11])
2: Soybean plant response rating (soybean; [8]) | Plant response rating, Bedstraw (bedstraw; [5]) | Bedstraw plant response rating (bedstraw; [7]) | Rape plant response rating (rape; [2]) | Crabgrass plant response rating (crabgrass; [9]) | Velvetleaf plant response rating (velvetleaf; [8]) | Blackgrass plant response rating (blackgrass; [9]) | Corn plant response rating (corn; [6]) | Plant response rating, Redroot pigweed (pigweed; [10])
0: B. signalgrass plant response rating (surinam grass; [1]) | B. signalgrass plant response rating (surinam grass; [7]) | Soybean plant response rating (soybean; [3]) | Plant response rating, Soybean (soybean; [4]) | Plant response rating, Soybean (soybean; [5]) | Soybean plant response rating (soybean; [6]) | Plant response rating, Rice (rice; Rate 250 g/ha, Postemergence (flood test), scale 0 to 10, 0 is no effect, 10 is complete control) | Rice plant response rating (rice; [12]) | Plant response rating, Rice (rice; [13]) | Rice plant response rating (rice; Rate 500 g/ha, listed under Postemergence (flood test species), scale 0 to 10, 0 no effect, 10 complete control) | Rice plant response rating (rice; [14]) | Rice plant response rating (rice; [15]) | Bedstraw plant response rating (bedstraw; [1]) | Plant response rating, Bedstraw (bedstraw; [4]) | Wild oats plant response rating (wild oat; [8]) | Wild oats plant response rating (wild oat; [9]) | Rape plant response rating (rape; [8]) | Rape plant response rating (rape; [9]) | Nutsedge plant response rating (purple nutsedge; [8]) | Nutsedge plant response rating (purple nutsedge; [2]) | Nutsedge plant response rating (purple nutsedge; [3]) | Plant response rating, Nutsedge (purple nutsedge; [4]) | Plant response rating, Nutsedge (purple nutsedge; [5]) | Nutsedge plant response rating (purple nutsedge; [9]) | Nutsedge plant response rating (purple nutsedge; [11]) | Velvetleaf plant response rating (velvetleaf; [3]) | Velvetleaf plant response rating (velvetleaf; [9]) | Ducksalad plant response rating (duck salad; [12]) | Plant response rating, Ducksalad (duck salad; [13]) | Ducksalad plant response rating (duck salad; [14]) | Ducksalad plant response rating (duck salad; [15]) | Corn plant response rating (corn; [8]) | Corn plant response rating (corn; [2]) | Corn plant response rating (corn; [3]) | Plant response rating, Corn (corn; [4]) | Plant response rating, Corn (corn; [5]) | Corn plant response rating (corn; [9]) | Corn plant response rating (corn; [11]) | Sugarbeets plant response rating (sugar beet; [8]) | Sugarbeets plant response rating (sugar beet; [9]) | Plant response rating, Sugarbeets (sugar beet; [18]) | Redroot pigweed plant response rating (pigweed; [8]) | Redroot pigweed plant response rating (pigweed; [9]) | Wheat plant response rating (wheat; [8]) | Wheat plant response rating (wheat; [3]) | Wheat plant response rating (0 to 10 scale) (wheat; [16]) | Wheat plant response rating (wheat; [9]) | S. Flatsedge plant response rating (smallflower flatsedge; Pre-emergence, Rate 1000 g/ha, scale 0 to 10 (0 no effect, 10 complete control)) | S. Flatsedge plant response rating (smallflower flatsedge; [12]) | Plant response rating, S. Flatsedge (smallflower flatsedge; [13]) | S. Flatsedge plant response rating (smallflower flatsedge; [15])
7: Plant response rating, B. signalgrass (surinam grass; [4]) | Plant response rating, B. signalgrass (surinam grass; [5]) | Plant response rating, Rape (rape; [5]) | Crabgrass plant response rating (crabgrass; [3]) | Blackgrass plant response rating (blackgrass; [2])
6: Soybean plant response rating (soybean; [11]) | Wild oats plant response rating (0 to 10 scale) (wild oat; [16]) | Plant response rating, Wild oats (wild oat; [17]) | Wild oats plant response rating (wild oat; [11]) | Plant response rating, Rape (rape; [4]) | Nutsedge plant response rating (purple nutsedge; [6]) | Velvetleaf plant response rating (velvetleaf; [6]) | Redroot pigweed plant response rating (pigweed; [11])
4: Plant response rating, Soybean (soybean; [10]) | Bedstraw plant response rating (bedstraw; [2]) | Rape plant response rating (rape; [3]) | Rape plant response rating (rape; [11]) | Velvetleaf plant response rating (0 to 10 scale) (velvetleaf; [16]) | Sugarbeets plant response rating (0 to 10 scale) (sugar beet; [16]) | Sugarbeets plant response rating (sugar beet; [11])
9: B. signalgrass plant response rating (surinam grass; [6]) | Wild oats plant response rating (wild oat; [6]) | Rape plant response rating (rape; [6]) | Plant response rating, Blackgrass (blackgrass; [5]) | Blackgrass plant response rating (blackgrass; [6])
